# Measured values from the supplement of paper PMC10307832.
# Tests used:
# Assay in all cases: relative viability (nuclei count vs DMSO), 5 days (fraction); higher = more cells survive
# Doxorubicin + Tozasertib = compound: COc1cccc2c1C(=O)c1c(O)c3c(c(O)c1C2=O)C[C@@](O)(C(=O)CO)C[C@@H]3O[C@H]1C[C@H](N)[C@H](O)[C@H](C)O1 [Doxorubicin] + Cc1cc(Nc2cc(N3CCN(C)CC3)nc(Sc3ccc(NC(=O)C4CC4)cc3)n2)n[nH]1 [Tozasertib] (partner 0.1 µM)
# In short: (§1)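 Dosing by pin tool came one day after lung cancer cell lines were seeded in 1536-well plates, using either one drug or a fixed anchor-drug dose plus five library-drug doses (not always all listed) in √10 steps. After 5 days, nuclei were counted on 4× images. Relative viability is treated-well nuclei count divided by vehicle-well nuclei count, and values are medians of duplicate plates.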
# BAY61-3606 + Crizotinib = compound: COC1=C(C=C(C=C1)C2=CC3=NC=CN3C(=N2)NC4=C(C=CC=N4)C(=O)N)OC [BAY61-3606] + C[C@@H](Oc1cc(-c2cnn(C3CCNCC3)c2)cnc1N)c1c(Cl)ccc(F)c1Cl [Crizotinib] (partner 1 µM)
# In short: as §1
# Doxorubicin + Vorinostat = compound: COc1cccc2c1C(=O)c1c(O)c3c(c(O)c1C2=O)C[C@@](O)(C(=O)CO)C[C@@H]3O[C@H]1C[C@H](N)[C@H](O)[C@H](C)O1 [Doxorubicin] + O=C(CCCCCCC(=O)Nc1ccccc1)NO [Vorinostat] (partner 1 µM)
# In short: as §1
# BAY61-3606 + Decitabine = compound: COC1=C(C=C(C=C1)C2=CC3=NC=CN3C(=N2)NC4=C(C=CC=N4)C(=O)N)OC [BAY61-3606] + Nc1ncn([C@H]2C[C@H](O)[C@@H](CO)O2)c(=O)n1 [Decitabine] (partner 2 µM)
# In short: as §1
Cell Line,relative viability (Doxorubicin + Tozasertib; first compound 0.001 µM),relative viability (Doxorubicin + Tozasertib; first compound 0.003162 µM),relative viability (Doxorubicin + Tozasertib; first compound 0.01 µM),relative viability (Doxorubicin + Tozasertib; first compound 0.03162 µM),relative viability (Doxorubicin + Tozasertib; first compound 0.1 µM),relative viability (BAY61-3606 + Crizotinib; first compound 0.02 µM),relative viability (BAY61-3606 + Crizotinib; first compound 0.06325 µM),relative viability (BAY61-3606 + Crizotinib; first compound 0.2 µM),relative viability (BAY61-3606 + Crizotinib; first compound 0.6325 µM),relative viability (BAY61-3606 + Crizotinib; first compound 2 µM),relative viability (Doxorubicin + Vorinostat; first compound 0.001 µM),relative viability (Doxorubicin + Vorinostat; first compound 0.003162 µM),relative viability (Doxorubicin + Vorinostat; first compound 0.01 µM),relative viability (Doxorubicin + Vorinostat; first compound 0.03162 µM),relative viability (Doxorubicin + Vorinostat; first compound 0.1 µM),relative viability (BAY61-3606 + Decitabine; first compound 0.02 µM),relative viability (BAY61-3606 + Decitabine; first compound 0.06325 µM),relative viability (BAY61-3606 + Decitabine; first compound 0.2 µM),relative viability (BAY61-3606 + Decitabine; first compound 0.6325 µM),relative viability (BAY61-3606 + Decitabine; first compound 2 µM)
PC-3 [JPC-3],0.887,0.888,0.915,0.866,0.856,1.03,0.961,0.979,0.96,0.944,1.02,0.946,0.824,0.747,0.416,0.822,0.711,0.848,0.947,0.781
NCI-H1944,0.24,0.267,0.231,0.235,0.239,1.08,1.04,0.912,1.07,0.637,0.554,0.632,0.541,0.416,0.497,0.408,0.466,0.424,0.434,0.327
NCI-H1755,0.605,0.556,0.576,0.552,0.598,0.787,0.786,0.839,0.982,0.721,0.78,0.749,0.716,0.788,0.827,0.671,0.666,0.656,0.673,0.773
H3255,0.59,0.759,0.573,0.604,0.539,0.922,0.854,0.902,1.05,0.752,,0.913,0.698,0.88,0.428,0.529,0.571,0.677,0.779,0.509
201T,0.924,0.955,0.949,0.927,0.924,1.1,0.996,1.01,1.02,1.03,0.892,0.996,0.96,1.06,0.942,0.87,0.923,0.864,0.896,0.834
NCI-H661,0.37,0.354,0.349,0.339,0.388,0.914,0.806,,0.984,0.957,0.737,0.82,0.695,0.577,0.495,0.594,0.546,0.546,0.573,0.534
NCI-H2085,0.815,0.829,0.919,0.796,0.829,0.858,0.882,0.87,0.863,0.702,0.725,0.779,0.807,0.82,0.618,0.531,0.528,0.555,0.531,0.53
NCI-H2023,0.351,0.378,0.294,0.157,0.0799,0.713,0.61,0.703,0.751,0.53,0.463,0.657,0.272,0.0749,0.109,0.221,0.297,0.237,0.266,0.19
